In brackets after ≈: the same amount, converted by molar mass.
Experiments:
Assay type in all cases: physicochemical
[1] = Crystal slurry experiment in water (crystalline form stability); conditions: Comparative Example 2, result in words
Experimental: X-ray powder diffraction (XRPD): performed on Bruker D8 Advance diffractometer. Samples were tested at room temperature. Testing conditions: 2θ scan range 3 to 40°, step size 0.02° and speed 0.2 s/step. […] The specific operation steps: respectively took 10 mg of each of the above samples and put them into a 5 ml glass bottle respectively, added 2 ml deionized water, stirred the solution at room temperature for 24 hours, then took the samples for filtration; and analyzed their crystalline forms with XRD.

[2] = Storage stability in desiccators at room temperature and RH 10% to 90%; conditions: room temperature, 4 months
Solubility in water [3] = conditions: for solubility in 25° C. water compared with known fruquintinib Form I: Comparative Example 1, result in words; for solubility at 1 min: deionized water, 25 °C, water, thermodynamic from solid; for solubility at 1 min / Solubility in Water: 10 mg in 10 ml deionized water, ultrasound 1 min, filtration, HPLC; for Solubility in Water: 25° C.
Experimental: High performance liquid chromatography (HPLC) data were collected on Ultimate 3000 and the concentration was tested with the external standard method. […] The specific operation steps: respectively took 10 mg of each of the above samples and put them into a 20 ml glass bottle respectively, added 10 ml deionized water, placed the solution at 25° C. ultrasound for 1 min, then took the samples for filtration and analyzed their concentrations using HPLC; calculated their solubility in water respectively.

Solubility in water [4] = conditions: background statement, conditions not given

Row | SMILES | crystalline form after having been stirred in water for 24 hours [1] | appearance, XRPD and melting point after storage [2] | solubility in 25° C. water compared with known fruquintinib Form I (Solubility in water [3]) | solubility at 1 min (Solubility in water [3]) | Solubility in Water (Solubility in water [3]; listed as Crystalline Form of Compound A of the present invention) | solubility in water (inventors' finding) (Solubility in water [4]) | Solubility in Water (Solubility in water [3])
1 | CNC(=O)c1c(C)oc2cc(Oc3ncnc4cc(OC)c(OC)cc34)ccc12.O=C(O)/C=C\C(=O)O | kept its form unchanged | unchanged | higher | 9.4 µg/mL | – | – | –
2 | CNC(=O)c1c(C)oc2cc(Oc3ncnc4cc(OC)c(OC)cc34)ccc12.O=C(O)CC(=O)O | kept its form unchanged | unchanged | higher | 12 µg/mL | – | – | –
3 | CNC(=O)c1c(C)oc2cc(Oc3ncnc4cc(OC)c(OC)cc34)ccc12 [Compound A] | kept its form unchanged | unchanged | higher | – | 9.9 µg/mL (≈ 25.2 µM) | – | –
4 | CNC(=O)c1c(C)oc2cc(Oc3ncnc4cc(OC)c(OC)cc34)ccc12 [Known fruquintinib Crystalline Form I, 6-(6,7-dimethoxyquinazoline-4-oxy)-N,2-dimethyl benzofuran-3-formamide, reference compound] | – | – | – | – | – | poor | 2.2 µg/mL (≈ 5.59 µM)
5 | CNC(=O)c1c(C)oc2cc(Oc3ncnc4cc(OC)c(OC)cc34)ccc12 [Known fruquintinib Crystalline Form III, 6-(6,7-dimethoxyquinazoline-4-oxy)-N,2-dimethyl benzofuran-3-formamide, reference compound] | – | – | – | – | – | – | 2.1 µg/mL (≈ 5.34 µM)
6 | CNC(=O)c1c(C)oc2cc(Oc3ncnc4cc(OC)c(OC)cc34)ccc12 [Known fruquintinib Crystalline Form VII, 6-(6,7-dimethoxyquinazoline-4-oxy)-N,2-dimethyl benzofuran-3-formamide, reference compound] | – | – | – | – | – | – | 2.6 µg/mL (≈ 6.61 µM)

— patent publication US11236077B2, “Fruquintinib eutectic crystal, preparation method therefor, composition, and uses thereof” (Hangzhou SoliPharma Co., Ltd., priority 2018, dated 2022)
